Assay results: paper PMC11483813, “Bombesin-Targeted Delivery of β-Carboline-Based Ir(III) and Ru(II) Photosensitizers for a Selective Photodynamic Therapy of Prostate Cancer” (Inorganic Chemistry, 2024)

Test system: PC-3 cells
Assay: Intracellular ROS generation (H2DCFDA, flow cytometry)
Assay type: cell-based, human
Details: IC50,light 4 h, blue light 1 h
Description: The photocytotoxic effects of the complexes and metallopeptides were further elucidated by evaluating their ability to photogenerate ROS at the cellular level. PC-3 cells were treated with the compounds at the respective IC50,light and irradiated with blue light. Subsequently, ROS generation was measured using the 2′,7′-dichlorodihydrofluorescein diacetate (H2DCFDA) probe, which diffuses into cells and is oxidized by ROS to produce a green fluorescent signal. […] Nevertheless, to ascertain the potential contributions of other ROS to the photocytotoxic activity, the capacity of the compounds to undergo type I PDT processes, resulting in the production of superoxide anions (O2^•–), was examined using a specific fluorescent probe that emits an orange signal upon interaction with this radical. […]
Figure 9 Intracellular ROS generation. […] The elevation of general ROS (A) and superoxide anion (B) levels was determined with specific probes by flow cytometry. […]
PC-3 cells were seeded at a density of 100000 cells per well in 12-well plates and incubated overnight. […] Cells were subsequently harvested by trypsinization, and the median fluorescence emission of 10000 cells was measured using a Novocyte flow cytometer equipped with NovoExpress software. The fluorescence fold increase relative to untreated control cells was calculated. […]

Compound: COC(=O)/C=C/c1ccc(-c2nccc3c4ccccc4n(C)c23)nc1.[Cl-].[Ir+3].[c-]1ccccc1-c1ccccn1.[c-]1ccccc1-c1ccccn1 [Ir-Me]
- ROS levels, fold increase versus control cells: 4.5 fold
